From PubChem BioAssay AID1963838 (Molecular Pharmacology Branch, DTP, NCI, 2024)

System: 855422-203-R-J1-PDC complex spheroid viability
Assay: Anticancer human tumor 855422-203-R-J1-PDC patient-derived bladder carcinoma cell line growth inhibition [POLQ]
Conditions: for IC50: curve of first compound; for viability, T/C: stronger effect = lower value
How it was run: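 PDC + HUVEC + MSC complex spheroids; POLQ inhibitors ± partner drugs; top conc. at/near clinical Cmax, else 10 microM (SN-38 1 microM), half-log dilutions; 37 degrees C, 5% CO2.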

[1] = second compound 0.0316 µM, first compound 0.0316 µM
[2] = second compound 0.0316 µM, first compound 0.1 µM
[3] = second compound 0.0316 µM, first compound 0.316 µM
[4] = second compound 0.0316 µM, first compound 1 µM
[5] = second compound 0.0316 µM, first compound 3.16 µM
[6] = second compound 0.0316 µM, first compound 10 µM
[7] = second compound 0.1 µM, first compound 0.0316 µM
[8] = second compound 0.1 µM, first compound 0.1 µM
[9] = second compound 0.1 µM, first compound 0.316 µM
[10] = second compound 0.1 µM, first compound 1 µM
[11] = second compound 0.1 µM, first compound 3.16 µM
[12] = second compound 0.1 µM, first compound 10 µM
[13] = second compound 0.316 µM, first compound 0.0316 µM
[14] = second compound 0.316 µM, first compound 0.1 µM
[15] = second compound 0.316 µM, first compound 0.316 µM
[16] = second compound 0.316 µM, first compound 1 µM
[17] = second compound 0.316 µM, first compound 3.16 µM
[18] = second compound 0.316 µM, first compound 10 µM
[19] = second compound 1 µM, first compound 0.0316 µM
[20] = second compound 1 µM, first compound 0.1 µM
[21] = second compound 1 µM, first compound 0.316 µM
[22] = second compound 1 µM, first compound 1 µM
[23] = second compound 1 µM, first compound 3.16 µM
[24] = second compound 1 µM, first compound 10 µM
[25] = second compound 3.16 µM, first compound 0.0316 µM
[26] = second compound 3.16 µM, first compound 0.1 µM
[27] = second compound 3.16 µM, first compound 0.316 µM
[28] = second compound 3.16 µM, first compound 1 µM
[29] = second compound 3.16 µM, first compound 3.16 µM
[30] = second compound 3.16 µM, first compound 10 µM
[31] = second compound 10 µM, first compound 0.0316 µM
[32] = second compound 10 µM, first compound 0.1 µM
[33] = second compound 10 µM, first compound 0.316 µM
[34] = second compound 10 µM, first compound 1 µM
[35] = second compound 10 µM, first compound 3.16 µM
[36] = second compound 10 µM, first compound 10 µM
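Also: spheroids exposed to compounds for seven days before readout.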

## COc1cccc2c1C(=O)c1c(O)c3c(c(O)c1C2=O)CC(O)(C(=O)CO)CC3OC1CC(N)C(O)C(C)O1 (stereo not drawn) + Nc1ccc(C#CCN(C(=O)Cc2ncc(C(F)(F)F)cc2C(F)(F)F)c2ccc(F)cc2)nn1
Second compound 0.0316 µM
  IC50: < 0.0316 µM
Second compound 0.1 µM
  IC50: < 0.0316 µM
Second compound 0.316 µM
  IC50: < 0.0316 µM
Second compound 1 µM
  IC50: < 0.0316 µM
Second compound 3.16 µM
  IC50: < 0.0316 µM
Second compound 10 µM
  IC50: < 0.0316 µM
[1]
  viability, T/C: 26.2%
[2]
  viability, T/C: 12.8%
[3]
  viability, T/C: 3.75%
[4]
  viability, T/C: 0.9%
[5]
  viability, T/C: 1.51%
[6]
  viability, T/C: 4.81%
[7]
  viability, T/C: 25.7%
[8]
  viability, T/C: 12.2%
[9]
  viability, T/C: 3.22%
[10]
  viability, T/C: 0.93%
[11]
  viability, T/C: 1.37%
[12]
  viability, T/C: 3.69%
[13]
  viability, T/C: 26%
[14]
  viability, T/C: 12.8%
[15]
  viability, T/C: 2.51%
[16]
  viability, T/C: 0.82%
[17]
  viability, T/C: 1.39%
[18]
  viability, T/C: 5.31%
[19]
  viability, T/C: 24.3%
[20]
  viability, T/C: 11.5%
[21]
  viability, T/C: 4.7%
[22]
  viability, T/C: 0.92%
[23]
  viability, T/C: 1.13%
[24]
  viability, T/C: 6.67%
[25]
  viability, T/C: 26.3%
[26]
  viability, T/C: 12.7%
[27]
  viability, T/C: 4.52%
[28]
  viability, T/C: 1.14%
[29]
  viability, T/C: 1.38%
[30]
  viability, T/C: 4.89%
[31]
  viability, T/C: 21.4%
[32]
  viability, T/C: 12.1%
[33]
  viability, T/C: 2.85%
[34]
  viability, T/C: 2.62%
[35]
  viability, T/C: 1.74%
[36]
  viability, T/C: 5.86%

## CCc1c2c(nc3ccc(O)cc13)-c1cc3c(c(=O)n1C2)COC(=O)[C@]3(O)CC + COC1C(OC(N)=O)C(O)C(Oc2ccc3c(O)c(NC(=O)c4ccc(O)c(CC=C(C)C)c4)c(=O)oc3c2C)OC1(C)C
Second compound 0.0316 µM
  IC50: < 0.00316 µM
Second compound 0.1 µM
  IC50: < 0.00316 µM
Second compound 0.316 µM
  IC50: < 0.00316 µM
Second compound 1 µM
  IC50: < 0.00316 µM
Second compound 3.16 µM
  IC50: < 0.00316 µM
Second compound 10 µM
  IC50: < 0.00316 µM
Second compound 0.0316 µM, first compound 0.00316 µM
  viability, T/C: 40.8%
Second compound 0.0316 µM, first compound 0.01 µM
  viability, T/C: 16.8%
[1]
  viability, T/C: 7.82%
[2]
  viability, T/C: 5.58%
[3]
  viability, T/C: 4.71%
[4]
  viability, T/C: 1.63%
Second compound 0.1 µM, first compound 0.00316 µM
  viability, T/C: 40.5%
Second compound 0.1 µM, first compound 0.01 µM
  viability, T/C: 14.3%
[7]
  viability, T/C: 8.6%
[8]
  viability, T/C: 6.16%
[9]
  viability, T/C: 3.09%
[10]
  viability, T/C: 1.68%
Second compound 0.316 µM, first compound 0.00316 µM
  viability, T/C: 42.7%
Second compound 0.316 µM, first compound 0.01 µM
  viability, T/C: 15.7%
[13]
  viability, T/C: 9.73%
[14]
  viability, T/C: 5.82%
[15]
  viability, T/C: 4.86%
[16]
  viability, T/C: 1.54%
Second compound 1 µM, first compound 0.00316 µM
  viability, T/C: 33.4%
Second compound 1 µM, first compound 0.01 µM
  viability, T/C: 14.5%
[19]
  viability, T/C: 9.49%
[20]
  viability, T/C: 5.81%
[21]
  viability, T/C: 3.09%
[22]
  viability, T/C: 2.46%
Second compound 3.16 µM, first compound 0.00316 µM
  viability, T/C: 26.4%
Second compound 3.16 µM, first compound 0.01 µM
  viability, T/C: 11.5%
[25]
  viability, T/C: 8.08%
[26]
  viability, T/C: 4.59%
[27]
  viability, T/C: 2.7%
[28]
  viability, T/C: 1.71%
Second compound 10 µM, first compound 0.00316 µM
  viability, T/C: 14.7%
Second compound 10 µM, first compound 0.01 µM
  viability, T/C: 11.2%
[31]
  viability, T/C: 7.82%
[32]
  viability, T/C: 6.39%
[33]
  viability, T/C: 3.19%
[34]
  viability, T/C: 1.43%

## CCc1cc2c(N3CCc4c(cc(Cn5ccnc5)cc4-c4cn(C)nc4C(F)(F)F)C3=O)cc(C)nc2c(OC)n1 + Cc1cccc(N(C)C(=O)C2C(O)CCN2c2nc(C)cc(C(F)(F)F)c2C#N)c1
Second compound 0.0316 µM
  IC50: 2.91 µM
Second compound 0.1 µM
  IC50: 6.15 µM
Second compound 0.316 µM
  IC50: 6.91 µM
Second compound 1 µM
  IC50: 7.37 µM
Second compound 3.16 µM
  IC50: 9.61 µM
Second compound 10 µM
  IC50: 6.32 µM
[1]
  viability, T/C: 102%
[2]
  viability, T/C: 134%
[3]
  viability, T/C: 134%
[4]
  viability, T/C: 72.5%
[5]
  viability, T/C: 61.1%
[6]
  viability, T/C: 35.2%
[7]
  viability, T/C: 101%
[8]
  viability, T/C: 144%
[9]
  viability, T/C: 119%
[10]
  viability, T/C: 91.1%
[11]
  viability, T/C: 66.8%
[12]
  viability, T/C: 39.1%
[13]
  viability, T/C: 126%
[14]
  viability, T/C: 147%
[15]
  viability, T/C: 103%
[16]
  viability, T/C: 111%
[17]
  viability, T/C: 70.7%
[18]
  viability, T/C: 39.4%
[19]
  viability, T/C: 119%
[20]
  viability, T/C: 125%
[21]
  viability, T/C: 113%
[22]
  viability, T/C: 81%
[23]
  viability, T/C: 71.7%
[24]
  viability, T/C: 42.4%
[25]
  viability, T/C: 135%
[26]
  viability, T/C: 128%
[27]
  viability, T/C: 143%
[28]
  viability, T/C: 95.3%
[29]
  viability, T/C: 71.4%
[30]
  viability, T/C: 46.1%
[31]
  viability, T/C: 110%
[32]
  viability, T/C: 132%
[33]
  viability, T/C: 145%
[34]
  viability, T/C: 98.2%
[35]
  viability, T/C: 73.1%
[36]
  viability, T/C: 36.1%

## CC(C)n1c(=O)n(C)c2cnc3cc(F)c(-c4ccc(OCCCN5CCCCC5)nc4)cc3c21 + Cc1cccc(N(C)C(=O)C2C(O)CCN2c2nc(C)cc(C(F)(F)F)c2C#N)c1
Second compound 0.0316 µM
  IC50: > 10 µM
Second compound 0.1 µM
  IC50: > 10 µM
Second compound 0.316 µM
  IC50: > 10 µM
Second compound 1 µM
  IC50: > 10 µM
Second compound 3.16 µM
  IC50: > 10 µM
Second compound 10 µM
  IC50: 6.79 µM
[1]
  viability, T/C: 110%
[2]
  viability, T/C: 113%
[3]
  viability, T/C: 97.1%
[4]
  viability, T/C: 84.5%
[5]
  viability, T/C: 87.9%
[6]
  viability, T/C: 57.6%
[7]
  viability, T/C: 96.1%
[8]
  viability, T/C: 104%
[9]
  viability, T/C: 95.4%
[10]
  viability, T/C: 85.8%
[11]
  viability, T/C: 91.8%
[12]
  viability, T/C: 56.3%
[13]
  viability, T/C: 111%
[14]
  viability, T/C: 104%
[15]
  viability, T/C: 99.6%
[16]
  viability, T/C: 87.4%
[17]
  viability, T/C: 85.1%
[18]
  viability, T/C: 60%
[19]
  viability, T/C: 99.2%
[20]
  viability, T/C: 92.6%
[21]
  viability, T/C: 109%
[22]
  viability, T/C: 94.1%
[23]
  viability, T/C: 86.4%
[24]
  viability, T/C: 56.2%
[25]
  viability, T/C: 109%
[26]
  viability, T/C: 101%
[27]
  viability, T/C: 112%
[28]
  viability, T/C: 97.5%
[29]
  viability, T/C: 89.3%
[30]
  viability, T/C: 56%
[31]
  viability, T/C: 95.9%
[32]
  viability, T/C: 97.8%
[33]
  viability, T/C: 99.5%
[34]
  viability, T/C: 94.2%
[35]
  viability, T/C: 81.4%
[36]
  viability, T/C: 33.9%
